Data from patent US6479435B1, “Diaryl ethers and processes for their preparation and herbicidal and desiccant compositions containing them” (ISK Americas Incorporated, priority 1997, dated 2002).

Legend:
Type in all cases: in vivo
[1] = test system: green foxtail (Setaria viridis, SETVI); experiment: Pre-emerge greenhouse herbicide test, phytotoxicity rating; details: 14 days after application, rating scale 0-100
In short: (§1)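 Seeds sown in sandy loam one day before track-sprayer application of acetone solutions at 125–1000 g ai/ha (187 l/ha), then surface-watered to incorporate and bottom-watered. Injury scored visually at 14 days on a 0–100 scale (0 no damage, 100 complete death).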

[2] = test system: Johnsongrass (Sorghum halepense, SORHA); experiment: as above; details: 500 g ai/ha, 14 days after application, rating scale 0-100
In short: as §1

[3] = test system: common ragweed (Ambrosia artemisiifolia L., AMBEL); experiment: as above; details: 14 days after application, rating scale 0-100
In short: as §1

[4] = test system: large crabgrass (Digitaria sanguinalis, DIGSA); experiment: as above; details: 14 days after application, rating scale 0-100
In short: as §1

[5] = test system: barnyardgrass (Echinochloa crusgalli, ECHCG); experiment: as above; details: 14 days after application, rating scale 0-100
In short: as §1

[6] = test system: velvetleaf (Abutilon theophrasti, ABUTH); experiment: as above; details: 14 days after application, rating scale 0-100
In short: as §1

[7] = test system: ivyleaf morningglory (Ipomoea hederacea, IPOHE); experiment: as above; details: 14 days after application, rating scale 0-100
In short: as §1

[8] = test system: lambsquarters (Chenopodium album, CHEAL); experiment: as above; details: 14 days after application, rating scale 0-100
In short: as §1

[9] = test system: redroot pigweed (Amaranthus retroflexus, AMARE); experiment: as above; details: 14 days after application, rating scale 0-100
In short: as §1

[10] = test system: sicklepod (Cassia obtusifolia, CASOB); experiment: as above; details: 14 days after application, rating scale 0-100
In short: as §1

[11] = test system: field corn (Zea mays L., var. Dekalb 535, CORN); experiment: Pre-emerge greenhouse test, crop damage rating; details: 14 days after application, rating scale 0-100
In short: as §1

[12] = test system: upland rice (Oryza sp., var.Tebonnet, RICE); experiment: Pre-emerge greenhouse test, crop damage rating; details: 14 days after application, rating scale 0-100
In short: as §1

[13] = test system: soybean (Glycine max L., var. Pella 86, SOY); experiment: Post-emerge greenhouse test, crop damage rating; details: 14 days after application
In short: (§2)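 Plants at the 2-3 leaf stage, sown 8-21 days earlier, were track-sprayed post-emergence with compound in acetone plus 0.25% v/v non-ionic surfactant at 63-1000 g ai/ha (187 l/ha). Damage was rated at 14 days on a 0-100 scale (0 none, 100 all plants dead), for both crop injury and weed control.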

[14] = test system: common ragweed (Ambrosia artemisiifolia L., AMBEL); experiment: Post-emerge greenhouse herbicide test, phytotoxicity rating; details: 14 days after application
In short: as §2

[15] = test system: green foxtail (Setaria viridis, SETVI); experiment: as above; details: 14 days after application
In short: as §2

[16] = test system: Johnsongrass (Sorghum halepense, SORHA); experiment: as above; details: 500 g al/ha, 14 days after application
In short: as §2

[17] = test system: large crabgrass (Digitaria sanguinalis, DIGSA); experiment: as above; details: 14 days after application
In short: as §2

[18] = test system: barnyardgrass (Echinochloa crusgalli, ECHCG); experiment: as above; details: 14 days after application
In short: as §2

[19] = test system: velvetleaf (Abutilon theophrasti, ABUTH); experiment: as above; details: 14 days after application
In short: as §2

[20] = test system: ivyleaf morningglory (Ipomoea hederacea, IPOHE); experiment: as above; details: 14 days after application
In short: as §2

[21] = test system: lambsquarters (Chenopodium album, CHEAL); experiment: as above; details: 14 days after application
In short: as §2

[22] = test system: redroot pigweed (Amaranthus retroflexus, AMARE); experiment: as above; details: 14 days after application
In short: as §2

[23] = test system: sicklepod (Cassia obtusifolia, CASOB); experiment: as above; details: 14 days after application
In short: as §2

[24] = test system: field corn (Zea mays L., var. Dekalb 535, CORN); experiment: Post-emerge greenhouse test, crop damage rating; details: 14 days after application
In short: as §2

[25] = test system: upland rice (Oryza sp., var.Tebonnet, RICE); experiment: Post-emerge greenhouse test, crop damage rating; details: 14 days after application
In short: as §2

[26] = test system: soybean (Glycine max L., var. Pella 86, SOY); experiment: Pre-emerge greenhouse test, crop damage rating; details: 14 days after application, rating scale 0-100
In short: as §1

O=C1C2CCCCN2C(=O)N1c1cc(Oc2ncccc2C(F)(F)F)c(Cl)cc1F (centres unmarked) [Compound 8-4]
100: phytotoxicity rating SETVI ([1]; 500 g ai/ha) | phytotoxicity rating ABUTH ([6]; 125 g ai/ha) | phytotoxicity rating ABUTH ([6]; 500 g ai/ha) | phytotoxicity rating CHEAL ([8]; 500 g ai/ha) | phytotoxicity rating AMARE ([9]; 125 g ai/ha) | phytotoxicity rating AMARE ([9]; 500 g ai/ha) | AMARE phytotoxicity rating (0-100) ([22]; 500 g al/ha)
10: phytotoxicity rating ECHCG ([5]; 125 g ai/ha) | SETVI phytotoxicity rating (0-100) ([15]; 63 g al/ha) | SETVI phytotoxicity rating (0-100) ([15]; 500 g al/ha) | CORN crop damage rating (0-100) ([24]; 500 g al/ha)
0: phytotoxicity rating AMBEL ([3]; 500 g ai/ha) | phytotoxicity rating IPOHE ([7]; 125 g ai/ha) | phytotoxicity rating IPOHE ([7]; 500 g ai/ha) | crop damage rating CORN ([11]; 125 g ai/ha) | crop damage rating CORN ([11]; 500 g ai/ha) | crop damage rating RICE ([12]; 125 g ai/ha) | AMBEL phytotoxicity rating (0-100) ([14]; 63 g al/ha) | AMBEL phytotoxicity rating (0-100) ([14]; 500 g al/ha) | SORHA phytotoxicity rating (0-100) [16] | DIGSA phytotoxicity rating (0-100) ([17]; 63 g al/ha) | DIGSA phytotoxicity rating (0-100) ([17]; 500 g al/ha) | ECHCG phytotoxicity rating (0-100) ([18]; 63 g al/ha) | ECHCG phytotoxicity rating (0-100) ([18]; 500 g al/ha) | RICE crop damage rating (0-100) ([25]; 63 g al/ha) | RICE crop damage rating (0-100) ([25]; 500 g al/ha) | crop damage rating SOY ([26]; 125 g ai/ha) | crop damage rating SOY ([26]; 500 g ai/ha)
20: phytotoxicity rating AMBEL ([3]; 125 g ai/ha) | SOY crop damage rating (0-100) ([13]; 63 g al/ha) | CASOB phytotoxicity rating (0-100) ([23]; 63 g al/ha)
75: CHEAL phytotoxicity rating (0-100) ([21]; 500 g al/ha)
85: ABUTH phytotoxicity rating (0-100) ([19]; 500 g al/ha)
90: phytotoxicity rating DIGSA ([4]; 500 g ai/ha) | phytotoxicity rating CASOB ([10]; 500 g ai/ha)
5: CORN crop damage rating (0-100) ([24]; 63 g al/ha)
60: IPOHE phytotoxicity rating (0-100) ([20]; 500 g al/ha) | AMARE phytotoxicity rating (0-100) ([22]; 63 g al/ha)
70: phytotoxicity rating SORHA [2] | phytotoxicity rating CHEAL ([8]; 125 g ai/ha) | ABUTH phytotoxicity rating (0-100) ([19]; 63 g al/ha) | CHEAL phytotoxicity rating (0-100) ([21]; 63 g al/ha)
40: CASOB phytotoxicity rating (0-100) ([23]; 500 g al/ha)
30: phytotoxicity rating DIGSA ([4]; 125 g ai/ha) | phytotoxicity rating ECHCG ([5]; 500 g ai/ha) | phytotoxicity rating CASOB ([10]; 125 g ai/ha) | crop damage rating RICE ([12]; 500 g ai/ha) | SOY crop damage rating (0-100) ([13]; 500 g al/ha)
50: phytotoxicity rating SETVI ([1]; 125 g ai/ha) | IPOHE phytotoxicity rating (0-100) ([20]; 63 g al/ha)
